Assay [1] concerns the target T1, porcine succinate-cytochrome c reductase (SCR, the mixture of complex II and bc1) (Sus scrofa, UniProt P24964).
T1 construct: T h e S C R f r o m p o r c i n e h e a r t; from tissue; host or cells: porcine heart
The following applies: previous data, cited from earlier work.

Another assay addresses T2, bc1 complex (Sus scrofa, UniProt P24964).
T2 construct: T h e S C R f r o m p o r c i n e h e a r t; from tissue; host or cells: porcine heart
Description: bc1 complex activity, DBH2-cytochrome c system (Assay 3). In kind it is biochemical, porcine. The method, then: Figure 3 Inhibitory kinetics of bc1 complex. (A) Chemical structures of AZ (azoxystrobin) and its analogues, compound 1 and compound 18. These compounds have a common pharmacophore structure: methoxyacrylate (MOA). […] Each reaction mixture contains phosphate buffered saline (PBS; 100 mM, pH 6.5), ethylenediaminetetraacetic acid (EDTA; 2 mM), lauryl maltoside (750 μM), oxidised cytochrome c (100 μM), SCR (0.05 nM), DBH2 (20–120 μM) and a specified amount of AZ (1, 0 nM; 2, 500 nM; 3, 1000 nM; 4, 2000 nM; 5, 3000 nM; and 6, 5000 nM). (C) Compound 1 is non-competitive with respect to cytochrome c. The reaction mixture contains 100 mM, pH 7.4), EDTA (0.3 mM), succinate (20 mM), SCR (0.1 nM), cytochrome c (1.13–15.6 μM), and a series of concentrations of compound 1 (1, 0 nM; 2, 10 nM; 3, 20 nM; 4, 40 nM; and 5, 60 nM). (D) Compound 1 is competitive with respect to DBH2. Each reaction mixture contains 100 mM, pH 6.5), EDTA (2 mM), lauryl maltoside (750 μM), oxidised cytochrome c (100 μM), SCR (0.05 nM), DBH2 (20–120 μM) and a specified amount of compound 1 (1, 0 nM; 2, 50 nM; 3, 100 nM; 4, 200 nM; 5, 300 nM; and 6, 500 nM).
Figure 4 Slow-binding inhibition mechanism. (A,B) Effect of various concentrations of cytochrome c and compound 18 on the inhibition of SCR activity. Each reaction mixture contains 100 mM, pH 7.4), EDTA (0.3 mM), succinate (20 mM), SCR (0.1 nM), and indicated amounts of cytochrome c and compound 18. The assays were performed in the presence of (A) 18 (35 nM) and a specified amount of cytochrome c (1, 4 μM; 2, 8 μM; 3, 20 μM; and 4, 48 μM) or (B) cytochrome c (60 μM) and various concentrations of compound 18 (1, 0 nM; 2, 15 nM; 3, 20 nM; 4, 30 nM; 5, 40 nM; and 6, 50 nM). Experimental data are shown as coloured dots and theoretical values are represented as black solid lines. Insets: plots of Kobs against concentration of (A) cytochrome c and (B) compound 18. […] Each reaction mixture contains 100 mM, pH 6.5), EDTA (2 mM), lauryl maltoside (750 μM), oxidised cytochrome c (100 μM), SCR (0.05 nM), and indicated amounts of DBH2 and compound 18. Two representative sets of inhibitory assays were performed in the presence of (C) DBH2 (20 μM) and a specified amount of compound 18 (1, 20 nM; 2, 40 nM; 3, 60 nM; 4, 80 nM), or (D) DBH2 (120 μM) and a specified amount of compound 18 (1, 40 nM; 2, 80 nM; 3, 120 nM; 4, 180 nM). Insets: plots of Kobs against concentration of compound 18. (E) Plot of the apparent rate constant A against concentration of DBH2. Inset: Plot of 1/A against concentration of DBH2. (F) Plot of the apparent rate constant B against concentration of DBH2.
The porcine succinate-cytochrome c reductase (SCR, the mixture of complex II and bc1) was prepared essentially according to the previously reported method. The enzymatic activities of SCR, complex II, and bc1 complex were analyzed in respective reaction mixtures as reported previously. Kinetic analyses for the inhibition mechanism were performed as previously described. […]
inhibitory kinetics study of bc1 inhibitors 8. […]
synthesized compounds against bc1 complex were examined by SCR. As previously described 9, the combined activity of SCR can be determined by using succinate and cytochrome c as substrates (Assay 1). We also measured the activity of complex II by using succinate and 2,6-dichloroindophenol (DCIP) as substrates (Assay 2), or the activity of bc1 complex by using decylubiquinol (DBH2) and cytochrome c as substrates (Assay 3). […]
redA 10, was used to represent the enzyme concentration. The three redox reactions used in this study were summarized as follows. […]

T2 sequence (P24964 whole entry, one chain of several): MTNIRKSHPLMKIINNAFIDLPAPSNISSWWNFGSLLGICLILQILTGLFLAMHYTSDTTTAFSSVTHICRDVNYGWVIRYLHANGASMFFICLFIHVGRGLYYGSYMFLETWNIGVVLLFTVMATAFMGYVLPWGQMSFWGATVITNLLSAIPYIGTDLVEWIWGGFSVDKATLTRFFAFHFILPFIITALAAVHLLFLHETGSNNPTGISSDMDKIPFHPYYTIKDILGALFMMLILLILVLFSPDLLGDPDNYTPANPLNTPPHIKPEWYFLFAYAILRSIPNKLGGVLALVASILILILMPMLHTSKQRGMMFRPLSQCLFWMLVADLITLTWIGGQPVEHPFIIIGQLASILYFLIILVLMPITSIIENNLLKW
T1 sequence (P24964 whole entry, one chain of several): as above

Take `CO/C=C(/C(=O)OC)c1ccccc1Oc1cc(Oc2ccccc2C#N)ncn1` [AZ, Azoxystrobin, reference compound]: the inhibitory constant (Ki) in assay [1] (inhibition of SCR activity) was 298 nM; on bc1 complex it was 395 ± 19.6 nM. For the same compound, the “inhibition type with respect to cytochrome c” value in assay [1] is “non-competitive”. Moreover, the “inhibition type with respect to DBH2” value on bc1 complex (Assay 3, varied DBH2) is listed as “competitive inhibitor”.

For `COC=C(C(=O)OC)c1ccccc1CSc1nc2cc(OC)ccc2s1` [Compound 18], at bc1 complex, the Ki came out at 13.4 ± 0.6 nM. At bc1 complex (Assay 3, varied DBH2), the “inhibition type with respect to DBH2” value is on record as “competitive inhibitor”, the “microscopic inhibition rate constant k+0” value amounted to 380000 ± 10000 M⁻¹ s⁻¹ and the “microscopic inhibition rate constant k−0” value was 0.00509 ± 0.00009 s⁻¹.
